Values joined by “and” are separate entries in the source; they are usually repeats but may differ in a detail not shown here. Equal values may be shown once. Read-outs that look alike come from different tables or passages of the source.
What was measured:
[1] = system: SH-SY5Y human neuroblastoma cells; test: Anti-necrotic effect: LDH release after OGD (4 h) and 24 h OGR (IR); format: cell-based; settings: OGD 4 h + 24 h OGR (IR); for IC50: compounds 0.1 μM to 1 mM, read-out: LDH Release Inhibition IC50 ±SEM; for Emax: read-out: Maximal Inhibition Mean±SEM (LDH release)
Description: To induce experimental ischemia, and the sub-consequent cellular damage, the neuroblastoma cultures underwent OGD for 3–4 h, maintained in a glucose-free Dulbecco’s medium inside an anaerobic chamber in the presence of a gas mixture of 95% N2/5% CO2 and humidified at 37 °C at a constant pressure of 0.15 bar. After the OGD period (4 h), medium was substituted by oxygenated 10% FCS-containing medium, and cells were incubated in conditions of normoxia for 24 h to recovery (R24h). The compounds used in the neuroprotection studies: nitrones 9a–i, α-phenyl-N-tert-butyl nitrone (PBN) and N-acetyl-L-cysteine (NAC) (0.01 μM−1000 µM), were added at the beginning of R24h as described. Concurrently, controls in the absence of the OGD procedure were performed by maintaining these cells with Dulbecco’s medium including glucose for 3–4 h in an incubator in conditions of normoxia during the OGD period; thereafter, the medium was changed, and the cells (in the presence or absence of the different study compounds) were returned to the incubator for 24 h of recovery, as described. In addition, experiments including the same amounts of vehicle (final concentration < 1% dimethyl sulfoxide) were performed, serving as controls. The effects of nitrones 9a–g were analyzed three-five times independently using different culture batches, and each experiment was carried out in triplicate.
Anti-necrotic cell activity was evaluated by culturing SHSY5Y cells in 48-well dishes, in a density of 2 × 10^5 cells/well and treating them as controls or under the OGD-R24h procedure, adding the testing compounds at 0.01–1000 µM (see point 4.2.2.). Media of every well were collected in Eppendorf tubes properly labelled and stored at −20 °C until measurement (samples would be needed to measure extracellular NADH). Afterwards, each well was recharged with a 0.1 M Phosphate Buffer with 0.5% Triton X-100, pH 7.5, in order to scratch the cells from the bottom of the well. After a 13.000 rpm centrifugation, the soluble fractions are collected and labelled (samples would be essential to measure intracellular NADH). Finally, LDH activity was quantified as the degree of absorbance declined at 340, indicating the oxidation of NADH to NAD+ as described. Results are expressed as the LDH activity of the extracellular medium referred to the total LDH activity after cell lysis.

[2] = system: human neuroblastoma SH-SY5Y cells; test: Superoxide radical production (DHE fluorescence) after OGD and 3 h OGR (IR); format: cell-based; settings: OGD + 3 h OGR (IR); for EC50: compounds 0.1 to 1000 μM, read-out: Antioxidant Activity EC50 ± SEM (superoxide production); for Emax: read-out: Maximal Activity mean±SEM (antioxidant)
Description: A density of 2–2.5 × 10^5 SHSY5Y cells/well was used to seed in 48-well plates to quantify superioxide anion formation. Firstly, cultured cells were exposed to OGD treatment for 3–4 h or maintained in normoxic conditions (controls). Thereafter, medium was replaced with oxygenated Dulbecco’s: Ham’s F12 medium with glucose, 1% Antibiotic-Antimycotic, 1% Gentamicin and 10% FCS. Cells were incubated in the absence (controls) or presence of indicated concentrations of the compounds of study, at 37 °C for 3 h. […] For every condition, the linear regression of fluorescence data (expressed in arbitrary fluorescence units, AFU) was calculated, and the slopes (a) of the best fitting lines (y = ax) were considered as an index of superoxide production, as described previously.

[3] = target: T1, Soybean Lipoxygenase (SLOX) (Glycine max, UniProt P08170); test: In vitro inhibition of soybean lipoxygenase (UV absorbance-based enzyme assay); format: biochemical; settings: for IC50: soybean LOX, sodium linoleate substrate, pH 9
T1 sequence (P08170 1-839): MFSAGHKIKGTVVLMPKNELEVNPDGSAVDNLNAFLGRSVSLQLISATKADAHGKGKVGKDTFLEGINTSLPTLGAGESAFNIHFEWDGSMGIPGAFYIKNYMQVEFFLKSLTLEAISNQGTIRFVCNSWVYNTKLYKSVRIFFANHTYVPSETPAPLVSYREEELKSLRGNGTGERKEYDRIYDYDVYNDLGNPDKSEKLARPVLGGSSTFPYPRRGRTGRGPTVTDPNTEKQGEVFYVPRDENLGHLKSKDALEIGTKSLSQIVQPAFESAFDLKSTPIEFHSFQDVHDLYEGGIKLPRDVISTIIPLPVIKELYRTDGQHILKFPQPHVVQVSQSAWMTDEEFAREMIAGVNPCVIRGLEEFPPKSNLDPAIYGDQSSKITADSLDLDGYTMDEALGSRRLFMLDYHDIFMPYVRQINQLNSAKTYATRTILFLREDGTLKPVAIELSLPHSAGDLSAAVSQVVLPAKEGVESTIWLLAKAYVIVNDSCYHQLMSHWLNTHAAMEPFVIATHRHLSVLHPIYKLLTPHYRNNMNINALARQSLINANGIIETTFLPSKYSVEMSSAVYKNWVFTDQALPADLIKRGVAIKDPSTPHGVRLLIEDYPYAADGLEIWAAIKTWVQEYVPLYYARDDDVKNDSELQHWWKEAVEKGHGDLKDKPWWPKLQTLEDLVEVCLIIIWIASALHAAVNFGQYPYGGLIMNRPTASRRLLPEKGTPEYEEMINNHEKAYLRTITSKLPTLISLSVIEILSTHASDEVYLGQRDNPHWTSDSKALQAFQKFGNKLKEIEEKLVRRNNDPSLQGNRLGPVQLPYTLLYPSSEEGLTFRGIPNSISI
Description: The experimental conditions followed our previously reported protocol. Sodium linoleate was used as a substrate (0.1 mM) with 0.2 mL of the saline solution of SLOX (1/9 × 10^−4 w/v) in the Tris buffer pH 9.

[4] = Hydroxyl radical scavenging (competition with DMSO); settings: tested at 100 µM
Description: The competition of the tested nitrones (100 µM) with DMSO (33 mM) in the phosphate buffer (50 mM), pH 7.4, was used. The hydroxyl radicals were generated by the Fe^3+/ascorbic acid system (EDTA 0.1 mM, Fe^3+ 167 µM, ascorbic acid 10 mM), and the samples were incubated at 37 °C/30 min. A 17% w/v solution of CCl3CO2H was used to stop the radical propagation. The percentage scavenging activity was compared to Trolox used as a reference.

[5] = ABTS radical cation decolorization assay; settings: tested at 100 µM
Description: Approximately 10 µL of the tested compounds in DMSO (100 µM final concentration) were mixed with 200 µL of ABTS∙^+ (100 mM) and 790 µL absolute ethanol. The absorbance value was recorded 1 min after mixing at 734 nm and compared to Trolox.

| Compound | IC50 ([1]; Homo sapiens) | Emax ([1]; Homo sapiens) | EC50 ([2]; Homo sapiens) | Emax ([2]; Homo sapiens) | IC50 [3] | OH (%) scavenging [4] | ABTS+ (%) [5] | Maximal Inhibition Mean±SEM (LDH release) [1] | IC50 [1] | Maximal Activity mean±SEM (antioxidant) [2] | EC50 [2] | LOX (%) inhibition ([3]; tested at 100 µM) |
| --- | --- | --- | --- | --- | --- | --- | --- | --- | --- | --- | --- | --- |
| C/[N+]([O-])=C/Cn1cnc2c(N)ncnc21 [9f] | 3.93 ± 0.05 µM | 129 ± 2.26% | 1.4 ± 0.66 µM | 106 ± 9.39% | 31 µM | 66% | 6% |  |  |  |  |  |
| CC(C)(C)[N+]([O-])=Cc1ccccc1 [PBN, α-phenyl-N-tert-butylnitrone, reference compound] |  |  |  |  |  | no | 5% | 77.51 ±5.75% and ≈ 75% | 5.28 µM and ~5 µM | 93.57±2.94% | 5.86 ± 0.63 µM | 23% |
| C/[N+]([O-])=C/Cn1cc(Br)c(=O)[nH]c1=O [9d] | 50.2 ± 8.87 µM | 120 ± 4.62% | 46.4 ± 9.49 µM | 114 ± 7.72% | 35 µM | 90% | 12% |  |  |  |  |  |
| Cc1cn(C/C=[N+](/C)[O-])c(=O)[nH]c1=O [9b] | 23.2 ± 2.64 µM | 122 ± 1.84% | 0.72 ± 0.16 µM | 100 ± 2.26% | 79 µM | 73% | 14% |  |  |  |  |  |
| C/[N+]([O-])=C/Cn1cc(Cl)c(=O)[nH]c1=O [9e] | 12 ± 1.71 µM | 98.6 ± 2.24% | 12.9 ± 1.43 µM | 89.3 ± 5.33% | 65 µM | 87% | 19% |  |  |  |  |  |
| C/[N+]([O-])=C/Cn1cc(Br)c(=O)n(C/C=[N+](/C)[O-])c1=O [9i] | 43.1 ± 6.5 µM | 121 ± 5.82% | 1.12 ± 0.13 µM | 107 ± 2.72% | 57.5 µM | inactive and No | 75% |  |  |  |  |  |

— article PMC8955307, “Nucleobase-Derived Nitrones: Synthesis and Antioxidant and Neuroprotective Activities in an In Vitro Model of Ischemia–Reperfusion” (International Journal of Molecular Sciences, 2022)
